Converted amounts (≈) assume the structure as drawn. Like-named read-outs stand apart in the source and are kept apart here.
What was measured:
E. coli DNA gyrase [1] = biological target: T1, E. coli DNA gyrase (Escherichia coli (strain K12), UniProt P0AES4+P0AES6); experiment: Agarose gel-based DNA gyrase inhibition assay; type: biochemical
Protocol: 100 ng of DNA gyrase was used to supercoil the rx pAB1 in the presence of different concentrations of a gyrase inhibitor. […] Samples were analyzed by electrophoresis in 1% w/v agarose gels followed by ethidium bromide staining and photographed under UV light.

E. coli DNA gyrase [2] = biological target: T1, E. coli DNA gyrase; experiment: biochemical; type: biochemical
in vitro [3] = conditions: human
in vitro [4] = conditions: mouse
S. aureus (ATCC 14775) = experiment: Minimum inhibitory concentration, broth microdilution; conditions: for MIC: Staphylococcus aureus
Mtb = Mtb whole cell assay (% inhibition, MIC); type: cell-based, Mycobacterium tuberculosis; conditions: Mycobacterium tuberculosis; Table 5 (same values in Table 6 at 20 µM)
Mtb DNA gyrase = Mtb DNA gyrase (Mycobacterium tuberculosis (strain ATCC 25618 / H37Rv), UniProt P9WG45+P9WG47); experiment: Mtb DNA gyrase inhibition assay (gel-based); type: biochemical; conditions: Table 5, Mtb gyrase; read-out: IC50 (µM) Mtb
Protocol: The IC50 against E. coli (A) and Mtb (C) gyrase were determined using the gel-based gyrase inhibition assays. The gyrase mediated DNA cleavage assays (B and D) were performed using pBR322. (A) 229 inhibits E. coli gyrase. Lane 1, rx pAB1. […] Lane 1, rx pAB1. […] 100 µM of CPDs were used. Symbols rx, nk, In, and sc represent relaxed, nicked, linear, and supercoiled DNA, respectively.
Agarose gel-based DNA gyrase inhibition assays were performed in 30 µL of 1 ×gyrase buffer (35 mM Tris-HCl, 24 mM KCl, 4 mM MgCl2, 2 mM DTT, 1.75 mM ATP, 0.1 mg/mL BSA, 6.5% glycerol, pH7.5) containing 400 ng of rx pAB1 at 37° C. 100 ng of DNA gyrase was used to supercoil the rx pAB1 in the presence of different concentrations of a gyrase inhibitor. After 15 minutes of incubation with the inhibitor at 37° C., all reactions were stopped with 1 µL of stop solution (3% SDS and 250 mM EDTA). Samples were analyzed by electrophoresis in 1% w/v agarose gels followed by ethidium bromide staining and photographed under UV light.

MRSA = experiment: Minimum inhibitory concentration, broth microdilution; conditions: for MIC: Staphylococcus aureus, MRSA
Protocol: (§1) Antibacterial minimum inhibitory concentrations (MICs) were obtained from three independent experiments using broth microdilution methods in 96-well plates according to Clinical and Laboratory Standards Institute guidelines. Cells were culture from singles colonies in MHIIB medium for 24 h at 37° C. in agitation (200 RPM). The cultures were then diluted using the same media to reach an OD600 of 0.1. Then, 50 µL of the diluted cultures were added to the plates holding 50 µL of serially diluted compounds in MHIIB. The plates were incubated at 37° C. for 20 h. The starting inoculum was fixated to 10^5 colony-forming units per ml.

[5] = biological target: E. coli DNA topoisomerase IV (Escherichia coli (strain K12), UniProt P0AFI2+P20083); experiment: E. coli DNA topoisomerase IV relaxation assay (gel-based); type: biochemical; conditions: IC50 Topoisomerase IV Gel-based, Table 8
Protocol: Relaxation assays by E. coli DNA topoisomerase IV and the ATPase assays were performed. […] Lane 1 is supercoiled plasmid pAB1. […] The supercoiled, fluorescently-labeled plasmid pAB1_FL905 was used.

B. subtilis (ATCC 6633) = experiment: Minimum inhibitory concentration, broth microdilution; conditions: Bacillus subtilis, ATCC6633, read-out: Minimum Inhibitory Concentration B.subtilis
Protocol: as §1

E. coli (ATCC 25922) = experiment: as above; conditions: Escherichia coli, ATCC25922, read-out: Minimum Inhibitory Concentration E. coli, Tables 3a-3c
E. coli DNA gyrase [6] = biological target: T1, E. coli DNA gyrase; experiment: E. coli DNA gyrase ATPase assay; type: biochemical
Protocol: E. coli DNA gyrase ATPase assays were performed in 60 µL of 1 ×gyrase ATPase buffer (10 mM Tris.HCl (pH 7.5), 0.2 mM EDTA, 1 mM magnesium chloride, 1 mM DTT, and 2% (w/v) glycerol) containing 50 nM E. coli DNA gyrase, 200 ng rx pAB1, 0.8 mM Phosphoenol pyruvate, 1.2 units of Pyruvate kinase, 1.7 units of lactate dehydrogenase, and 0.4 mM of NADH at 37° C. After the reaction mixtures are incubated on ice for 5 minutes, 2 mM of ATP is added to initiate the reaction. Absorbance at OD340nm is monitored for up to 30 minutes at 37° C. in a spectrophotometer.

[7] = IC50 (µM) EC, Table 5, E. coli gyrase
[8] = ATCC14775, read-out: MIC (µM) SA
[9] = ATCC14775, read-out: Minimum Inhibitory Concentration S.aureus
[10] = read-out: Minimum Inhibitory Concentration S.aureus MRSA
[11] = IC50 (50-200 µM), bin of Table 2

Chain of E. coli DNA topoisomerase IV (P0AFI2 whole entry, looked up): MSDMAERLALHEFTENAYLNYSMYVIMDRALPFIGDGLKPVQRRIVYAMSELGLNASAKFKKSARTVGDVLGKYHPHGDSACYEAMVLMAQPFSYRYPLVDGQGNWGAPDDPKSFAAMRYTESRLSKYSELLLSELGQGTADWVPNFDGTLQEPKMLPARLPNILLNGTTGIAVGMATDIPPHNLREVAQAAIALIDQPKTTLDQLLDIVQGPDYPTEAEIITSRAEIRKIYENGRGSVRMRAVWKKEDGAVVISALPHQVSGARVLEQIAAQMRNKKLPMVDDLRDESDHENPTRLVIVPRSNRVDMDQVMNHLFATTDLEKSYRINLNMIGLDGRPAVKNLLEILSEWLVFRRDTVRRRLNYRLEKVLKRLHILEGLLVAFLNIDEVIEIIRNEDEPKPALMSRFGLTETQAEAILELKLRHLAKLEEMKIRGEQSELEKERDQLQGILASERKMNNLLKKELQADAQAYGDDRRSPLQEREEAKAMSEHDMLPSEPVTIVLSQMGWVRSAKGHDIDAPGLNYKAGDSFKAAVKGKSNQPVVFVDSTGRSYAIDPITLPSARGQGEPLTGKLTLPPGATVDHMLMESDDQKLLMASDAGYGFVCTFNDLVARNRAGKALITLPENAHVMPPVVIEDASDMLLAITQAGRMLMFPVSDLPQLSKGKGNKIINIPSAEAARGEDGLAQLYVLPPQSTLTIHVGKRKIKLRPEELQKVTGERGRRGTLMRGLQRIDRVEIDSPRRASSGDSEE
Chain of E. coli DNA topoisomerase IV (P20083 whole entry, looked up): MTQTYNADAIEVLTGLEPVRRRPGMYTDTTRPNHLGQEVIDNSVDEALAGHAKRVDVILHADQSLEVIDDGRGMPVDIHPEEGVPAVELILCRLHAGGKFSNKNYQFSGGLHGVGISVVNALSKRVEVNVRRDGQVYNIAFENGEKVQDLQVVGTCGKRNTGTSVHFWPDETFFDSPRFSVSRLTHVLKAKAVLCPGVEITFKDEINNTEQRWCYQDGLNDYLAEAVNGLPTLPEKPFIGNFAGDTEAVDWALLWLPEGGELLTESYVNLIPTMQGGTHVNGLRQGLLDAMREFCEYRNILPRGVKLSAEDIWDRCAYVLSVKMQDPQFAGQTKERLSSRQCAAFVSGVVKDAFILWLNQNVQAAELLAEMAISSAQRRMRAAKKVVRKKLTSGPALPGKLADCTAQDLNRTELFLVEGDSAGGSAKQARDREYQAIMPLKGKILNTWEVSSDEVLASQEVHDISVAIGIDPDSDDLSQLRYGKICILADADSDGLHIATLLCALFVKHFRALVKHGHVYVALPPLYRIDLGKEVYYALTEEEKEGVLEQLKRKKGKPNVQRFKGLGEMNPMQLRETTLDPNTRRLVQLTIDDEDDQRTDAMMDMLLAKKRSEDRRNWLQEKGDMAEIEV

Structure (SMILES) | inhibition of E. coli DNA gyrase activities (E. coli DNA gyrase [1]; 50 µM of compounds) | inhibition of E. coli DNA gyrase activities (E. coli DNA gyrase [1]; 200 µM of compounds) | IC50 (in vitro [3]) [µM] | IC50 (in vitro [4]) [µM] | IC50 (E. coli DNA gyrase [2]; [7]) [µM] | MIC (S. aureus (ATCC 14775); [8]) [µM] | inhibition at 20 µM (Mtb) [%] | IC50 (Mtb DNA gyrase) [µM] | MIC (S. aureus (ATCC 14775); [9]) [µM] | MIC (MRSA; [10]) [µM] | MIC (MRSA; read-out: MIC (µM) MRSA) [µM] | other results
CCN(CC)c1ccc(C=C2SC(=S)NC2=O)cc1 [Compound 212] | completely inhibited | completely inhibited | > 200 | > 200 | – | – | – | – | – | – | – | IC50 (E. coli DNA gyrase [2]; IC50 ([…]-50 µM), bin of Table 2): 25 to 50 µM
Cc1c(CCC(=O)O)c(=O)oc2c(C)c3occ(-c4ccc(N5CCCC5)cc4)c3cc12 [Compound 125] | completely inhibited | – | – | – | 4.9 | > 200 | 10.2 | 55 | – | – | – | inhibition of E. coli DNA gyrase activities (E. coli DNA gyrase [2]): potently inhibited; growth of S. aureus (S. aureus (ATCC 14775)): did not inhibit the growth; growth of MRSA (MRSA): did not inhibit the growth
O=C(O)c1cc(O)c(O)c(O)c1 [gallic acid] | – | – | – | – | – | – | – | – | – | – | – | IC50 (E. coli DNA gyrase [1]; Table 8, read-out: IC50 Gyrase Gel-based): > 500 µM; inhibition of E. coli DNA gyrase activities (E. coli DNA gyrase [2]): does not inhibit E. coli DNA gyrase up to 500 µM; IC50 [5]: > 500 µM
CSc1nc(SCC(=O)O)c2sc3nc(-c4ccccc4)c4c(c3c2n1)CCC4 [Compound 19] | completely inhibited | completely inhibited | > 200 | > 200 | – | – | – | – | – | – | – | –
CCn1c(N)[n+](CC(=O)Nc2ccc(SC(F)F)cc2)c2ccccc21.[Cl-] [Compound 135] | completely inhibited | – | – | – | – | – | – | – | 50 | 50 | – | MIC (B. subtilis (ATCC 6633)): 50 µM; IC50 (E. coli DNA gyrase [2]; IC50 (15-[…] µM), bin of Table 2): 15 to 25 µM; MIC (E. coli (ATCC 25922)): 200 µM
Cc1coc2cc3oc(=O)c(CCC(=O)O)c(C)c3cc12 [Compound 122] | potently inhibited | – | – | – | > 200 | > 200 | 15.7 | > 200 | – | – | > 200 | –
Cc1c(CCC(=O)O)c(=O)oc2c(C)c3occ(-c4ccccc4)c3cc12 [Compound 121] | – | – | – | – | 28 | 3.1 (≈ 1.12 µg/mL) | 36.7 | 58 | 3.12 (≈ 1.13 µg/mL) | 3.12 (≈ 1.13 µg/mL) | 3.1 (≈ 1.12 µg/mL) | MIC (B. subtilis (ATCC 6633)): 50 µM (≈ 18.1 µg/mL)
O=C(O)c1cccc(-c2ccc(/C=c3/sc4nc5ccccc5n4c3=O)o2)c1 [Compound 47] | completely inhibited | completely inhibited | > 200 | > 200 | – | – | – | – | – | – | – | –
Cc1c(CCC(=O)O)c(=O)oc2c(C)c3occ(-c4ccc(F)cc4)c3cc12 [Compound 123] | completely inhibited | – | – | – | 28.1 | 1.6 (≈ 0.609 µg/mL) | 31.8 | 34 | 1.56 (≈ 0.593 µg/mL) | 1.56 (≈ 0.593 µg/mL) | 1.6 (≈ 0.609 µg/mL) | MIC (B. subtilis (ATCC 6633)): 6.25 µM (≈ 2.38 µg/mL)
CC(=O)Nc1ccc(/C=C2\Sc3ccccc3C2=O)cc1 [Compound 54] | – | almost completely inhibited | > 200 | > 200 | – | – | – | – | – | – | – | IC50 (E. coli DNA gyrase [2]; [11]): 50 to 200 µM
Cc1c(CCC(=O)O)c(=O)oc2c(C)c3occ(-c4ccc(Br)cc4)c3cc12 [Compound 48] | completely inhibited | completely inhibited | – | – | – | 3.1 (≈ 1.37 µg/mL) | 38.6 | 57 | 3.12 (≈ 1.38 µg/mL) | 3.12 (≈ 1.38 µg/mL) | 3.1 (≈ 1.37 µg/mL) | Ki (E. coli DNA gyrase [6]): 0.15 µM; inhibition of the ATPase activities of E. coli DNA gyrase (E. coli DNA gyrase [6]; AB-MECA and gallates at 100 µM): ATP competitive inhibitor; inhibition of E. coli DNA gyrase activities (E. coli DNA gyrase [2]): potent bacterial DNA gyrase inhibitors; IC50 (E. coli DNA gyrase [2]; Table 5, E. coli gyrase, read-out: IC50 (µM) EC): 4.2 µM
Cc1c(CCC(=O)O)c(=O)oc2cc3occ(-c4ccc(Cl)cc4)c3cc12 [Compound 25] | almost completely inhibited | completely inhibited | – | – | 11.5 | > 200 | 0.8 | 65 | – | – | – | inhibition of E. coli DNA gyrase activities (E. coli DNA gyrase [2]): potent bacterial DNA gyrase inhibitors
O=C(O)c1ccc(/N=N/C2C(O)=Nc3ccc(F)cc32)cc1 (centres unmarked) [Compound 127] | completely inhibited | – | > 200 | > 200 | – | – | – | – | 50 (≈ 15 µg/mL) | 50 (≈ 15 µg/mL) | – | MIC (B. subtilis (ATCC 6633)): 25 µM (≈ 7.48 µg/mL)
Cc1c(CC(=O)O)c(=O)oc2c(C)c3occ(-c4ccc(Br)cc4)c3cc12 [Compound 117] | completely inhibited | – | – | – | 15.7 | 1.6 (≈ 0.684 µg/mL) | 24.7 | 50 | 1.56 (≈ 0.667 µg/mL) | 1.56 (≈ 0.667 µg/mL) | 1.6 (≈ 0.684 µg/mL) | –
Cc1cccc2c1N=C(O)C2/N=N/c1ccc(C(=O)O)cc1 (centres unmarked) [Compound 128] | completely inhibited | – | > 200 | > 200 | – | – | – | – | 50 (≈ 14.8 µg/mL) | 50 (≈ 14.8 µg/mL) | – | MIC (B. subtilis (ATCC 6633)): 25 µM (≈ 7.38 µg/mL)
O=C(Nc1cccc(C2=NCCN2)c1)Nc1cccc(C2=NCCN2)c1 [Compound 79] | – | – | – | – | – | – | – | – | 200 (≈ 69.7 µg/mL) | 200 (≈ 69.7 µg/mL) | – | MIC (B. subtilis (ATCC 6633)): 100 µM (≈ 34.8 µg/mL); IC50 (E. coli DNA gyrase [2]; [11]): 50 to 200 µM; MIC (E. coli (ATCC 25922)): 200 µM (≈ 69.7 µg/mL)
O=C(O)c1ccc(NN=CC=Cc2ccc([N+](=O)[O-])o2)cc1 [Compound 110] | potently inhibited | – | > 200 | > 200 | – | – | – | – | – | – | – | IC50 (E. coli DNA gyrase [2]; [11]): 50 to 200 µM
CC(=O)Nc1ccc(S(=O)(=O)Nc2nc3ccccc3nc2Nc2ccc(C(=O)O)c(O)c2)cc1 [Compound 30] | – | – | > 200 | > 200 | – | – | – | – | – | – | – | –
COc1cc2ccccc2cc1C(=O)NC(=S)Nc1ccc(C(=O)O)cc1 [Compound 72] | – | – | – | – | – | – | – | – | – | – | – | MIC (E. coli (ATCC 25922)): 100 µM (≈ 38 µg/mL)
Cc1c(CCC(=O)O)c(=O)oc2c(C)c3occ(-c4ccc(Cl)cc4)c3cc12 [Compound 120] | completely inhibited | – | – | – | 7.9 | 1.6 (≈ 0.635 µg/mL) | 18.7 | 33 | 1.56 (≈ 0.619 µg/mL) | 1.56 (≈ 0.619 µg/mL) | 1.6 (≈ 0.635 µg/mL) | –
Cc1cc(/C=C2\SC(=S)NC2=O)c(C)n1C [Compound 64] | – | completely inhibited | > 200 | > 200 | – | – | – | – | – | – | – | IC50 (E. coli DNA gyrase [2]; [11]): 50 to 200 µM
COc1cc(/C=N/N=c2\[nH]c3ccccc3s2)cc([N+](=O)[O-])c1O [Compound 178] | completely inhibited | – | > 200 | > 200 | – | – | – | – | – | – | – | –
Cc1c(C)c2cc3c(-c4ccc(Br)cc4)coc3c(C)c2oc1=O [Compound 118] | – | – | – | – | > 200 | > 200 | 21.8 | > 200 | – | – | > 200 | –

— patent US20230364057A1, “BACTERIAL DNA GYRASE INHIBITORS AND METHODS OF USE THEREOF” (THE FLORIDA INTERNATIONAL UNIVERSITY BOARD OF TRUSTEES, priority 2022, published 2023)
